In PubChem BioAssay AID330 (DTP/NCI, 2004):
Several values for one entry are separate records, joined by “and”; a condition that tells them apart may be missing. Equal values may be shown once. Inconclusive results and toxic doses are left out.

Test system: P388 leukemia ip, CD2F1 mice, survival T/C
Test: NCI In Vivo Anticancer Drug Screen. Data for tumor model P388 Leukemia (intraperitoneal) in CD2F1 (CDF1) mice
Conditions: endpoint: median survival time, higher = longer survival
Outline: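 Mice carrying the transplanted tumor received test compound or vehicle. Survival was recorded in each group, and the value is the treated-group measurement divided by that of the vehicle-treated control group.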

[1] = dose: 60.0 mg/kg/injection, schedule: Q01DX005 (ip), vehicle: Klucel (hydroxypropylcellulose) (HPC)
[2] = dose: 120.0 mg/kg/injection, schedule: Q01DX005 (ip), vehicle: Klucel (hydroxypropylcellulose) (HPC)
[3] = dose: 240.0 mg/kg/injection, schedule: Q01DX005 (ip), vehicle: Klucel (hydroxypropylcellulose) (HPC)
[4] = dose: 50.0 mg/kg/injection, schedule: Q01DX005 (ip), vehicle: Klucel (hydroxypropylcellulose) (HPC)
[5] = dose: 100.0 mg/kg/injection, schedule: Q01DX005 (ip), vehicle: Klucel (hydroxypropylcellulose) (HPC)
[6] = dose: 100.0 mg/kg/injection, schedule: Q04DX002 (ip), vehicle: saline
[7] = dose: 200.0 mg/kg/injection, schedule: Q04DX002 (ip), vehicle: saline
[8] = dose: 60.0 mg/kg/injection, schedule: Q01DX005 (ip), vehicle: saline with Tween-80
[9] = dose: 120.0 mg/kg/injection, schedule: Q01DX005 (ip), vehicle: saline with Tween-80
[10] = dose: 240.0 mg/kg/injection, schedule: Q01DX005 (ip), vehicle: saline with Tween-80

## CC(C)CCCC(C)C1CCC2C3CCC4CCC=CC4(C)C3CCC12C (stereo not given)
dose: 30.0 mg/kg/injection, schedule: Q01DX005 (ip), vehicle: Klucel (hydroxypropylcellulose) (HPC)
  T/C: 93 % of control
[1]
  T/C: 90 % of control
[2]
  T/C: 90 % of control
[3]
  T/C: 91 % of control

## c1ccc2c3c(ccc2c1)OCCOCCOCCOc1ccc2ccccc2c1-3
dose: 100.0 mg/kg/injection, schedule: Q01DX001 (ip), vehicle: saline with Tween-80
  T/C: 98 % of control
dose: 200.0 mg/kg/injection, schedule: Q01DX001 (ip), vehicle: saline with Tween-80
  T/C: 92 % of control
dose: 400.0 mg/kg/injection, schedule: Q01DX001 (ip), vehicle: saline with Tween-80
  T/C: 87 % of control

## CCC1CN1P(=O)(Oc1ccc2ccccc2c1)N1CC1CC (stereo not given)
dose: 44.0 mg/kg/injection, schedule: Q04DX003 (ip), vehicle: saline with Tween-80
  T/C: 104 % of control
dose: 50.0 mg/kg/injection, schedule: Q01DX009 (ip), vehicle: saline with Tween-80
  T/C: 173 % of control
dose: 66.0 mg/kg/injection, schedule: Q04DX003 (ip), vehicle: saline with Tween-80
  T/C: 109 % of control
dose: 100.0 mg/kg/injection, schedule: Q01DX009 (ip), vehicle: saline with Tween-80
  T/C: 155 % of control and 177 % of control
dose: 150.0 mg/kg/injection, schedule: Q01DX009 (ip), vehicle: saline with Tween-80
  T/C: 100 % of control
dose: 150.0 mg/kg/injection, schedule: Q04DX003 (ip), vehicle: saline with Tween-80
  T/C: 240 % of control
dose: 200.0 mg/kg/injection, schedule: Q01DX009 (ip), vehicle: saline with Tween-80
  T/C: 170 % of control

## O=Nc1c(O)c2ccccc2c2ccccc12
dose: 25.0 mg/kg/injection, schedule: Q01DX005 (ip), vehicle: Klucel (hydroxypropylcellulose) (HPC)
  T/C: 102 % of control
[4]
  T/C: 102 % of control
[5]
  T/C: 112 % of control

## O[C@H]1c2cccn2-c2ccccc2S[C@H]1c1ccccc1
[1]
  T/C: 91 % of control
[2]
  T/C: 94 % of control
[3]
  T/C: 102 % of control

## CC[N+](C)(CC)CCl
dose: 7.5 mg/kg/injection, schedule: Q01DX005 (ip), vehicle: saline
  T/C: 104 % of control
dose: 15.0 mg/kg/injection, schedule: Q01DX005 (ip), vehicle: saline
  T/C: 99 % of control

## O=C(/C=C/c1c2ccccc2cc2ccccc12)c1ccc(C(=O)/C=C/c2c3ccccc3cc3ccccc23)cc1
dose: 12.5 mg/kg/injection, schedule: Q01DX009 (ip), vehicle: saline with Tween-80
  T/C: 105 % of control
dose: 25.0 mg/kg/injection, schedule: Q01DX009 (ip), vehicle: saline with Tween-80
  T/C: 90 % of control

## CCn1cc(C(=O)O)c(=O)c2ccc(-c3cn(C)nc3C)nc21 (tested in a mixture with another compound)
dose: 50.0 mg/kg/injection, schedule: Q04DX002 (ip), vehicle: saline
  T/C: 99 % of control
[6]
  T/C: 99 % of control
[7]
  T/C: 98 % of control

## CC(=O)Nc1ccc(/C=C/c2csnn2)cc1
[8]
  T/C: 92 % of control
[9]
  T/C: 87 % of control
[10]
  T/C: 92 % of control

## O=c1[nH]c2c(ccc3ccc[n+]([O-])c32)c2c1CCC2
[6]
  T/C: 100 % of control
[7]
  T/C: 90 % of control
dose: 400.0 mg/kg/injection, schedule: Q04DX002 (ip), vehicle: saline
  T/C: 100 % of control

## CC(C)(C)c1ccc(-c2cc3nc(C(F)(F)F)cc(=O)n3[nH]2)cc1
[8]
  T/C: 89 % of control
[9]
  T/C: 89 % of control
[10]
  T/C: 100 % of control

## CC1CC(c2ccccc2Cl)C(c2ccccc2)C(=O)O1 (stereo not given)
dose: 100.0 mg/kg/injection, schedule: Q04DX003 (ip), vehicle: Klucel (hydroxypropylcellulose) (HPC)
  T/C: 100 % of control
dose: 200.0 mg/kg/injection, schedule: Q04DX003 (ip), vehicle: Klucel (hydroxypropylcellulose) (HPC)
  T/C: 106 % of control
dose: 400.0 mg/kg/injection, schedule: Q04DX003 (ip), vehicle: Klucel (hydroxypropylcellulose) (HPC)
  T/C: 108 % of control

## [O-][n+]1cscc1-c1nc2ccccc2[nH]1
[4]
  T/C: 100 % of control
[5]
  T/C: 98 % of control
dose: 200.0 mg/kg/injection, schedule: Q01DX005 (ip), vehicle: Klucel (hydroxypropylcellulose) (HPC)
  T/C: 102 % of control

## O=C=Nc1nc(Cl)c(SC(F)(F)F)c(Cl)n1
[8]
  T/C: 97 % of control
[9]
  T/C: 98 % of control
[10]
  T/C: 108 % of control
